The nature of series [1]: GSH reactivity in PBS assessed as GSH adduct formation at 1 mM after 8 hrs by UPLC-MS analysis. The format is physicochemical. Particulars: buffer, 1000 µM.
Series [2] deals with Fatty acid-binding protein 5 (Homo sapiens) (UniProt Q01469). As to the kind of experiment: Binding affinity to FABP5 (unknown origin) at 1:1 ratio by fluorescence based thermal shift assay.
The target in series [3] is Catenin beta-1 (Homo sapiens) (UniProt P35222). As to the kind of experiment: Inhibition of beta catenin (unknown origin) expressed in HEK293T cells at 10 to 20 uM by dual-TOPFlash reporter gene assay. The format is cell-based. Background: A reporter such as luciferase makes a cellular process visible.
Chain of Catenin beta-1 (Homo sapiens) (P35222 whole entry): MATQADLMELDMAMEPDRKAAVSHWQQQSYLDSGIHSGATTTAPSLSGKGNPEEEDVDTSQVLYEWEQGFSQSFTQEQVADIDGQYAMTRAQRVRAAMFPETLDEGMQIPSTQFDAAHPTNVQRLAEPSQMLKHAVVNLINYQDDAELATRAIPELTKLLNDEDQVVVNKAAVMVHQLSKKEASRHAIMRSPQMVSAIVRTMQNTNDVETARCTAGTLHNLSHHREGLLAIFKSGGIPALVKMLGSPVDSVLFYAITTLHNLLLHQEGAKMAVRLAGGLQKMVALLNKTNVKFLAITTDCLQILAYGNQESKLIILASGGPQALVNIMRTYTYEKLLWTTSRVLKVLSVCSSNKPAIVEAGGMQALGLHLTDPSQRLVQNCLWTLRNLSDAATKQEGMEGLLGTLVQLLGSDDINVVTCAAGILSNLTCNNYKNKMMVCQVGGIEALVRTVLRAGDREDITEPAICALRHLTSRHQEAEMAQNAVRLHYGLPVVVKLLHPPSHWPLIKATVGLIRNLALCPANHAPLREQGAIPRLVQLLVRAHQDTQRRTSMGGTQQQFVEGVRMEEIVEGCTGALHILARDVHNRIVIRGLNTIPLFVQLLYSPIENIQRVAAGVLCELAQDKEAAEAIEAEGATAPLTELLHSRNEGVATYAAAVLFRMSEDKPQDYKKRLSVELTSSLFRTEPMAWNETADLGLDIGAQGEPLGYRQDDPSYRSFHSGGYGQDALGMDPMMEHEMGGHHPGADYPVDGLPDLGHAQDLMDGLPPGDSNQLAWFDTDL
Series [4] has as its target Serine/threonine-protein kinase STK11 (Homo sapiens) (UniProt Q15831). As to the kind of experiment: Inhibition of recombinant full-length human LKB1 at 10 uM using LSNLYHQGKFLQTFCGSPLYRRR as substrate measured after 40 mins in presence of [gamm33P]ATP by scintillation counting method relative to control.
Series [5] deals with Tyrosine-protein kinase ITK/TSK (Homo sapiens) (UniProt Q08881). As to the kind of experiment: Inhibition of recombinant human ITK (352 to 617 residues) at 10 uM using myelin basic protein as substrate measured after 40 mins in presence of [gamm33P]ATP by scintillation counting method relative to control.
Series [6] has as its target SRSF protein kinase 1 (Homo sapiens) (UniProt Q96SB4). As to the kind of experiment: Inhibition of recombinant human SRPK1 (2 to end residues) at 10 uM using RSRSRSRSRSRSRSR as substrate measured after 40 mins in presence of [gamma33P]ATP by scintillation counting method relative to control.
In series [7] the target is Mitogen-activated protein kinase 14 (Homo sapiens) (UniProt Q16539). As to the kind of experiment: Inhibition of recombinant full-length human SAPK2a at 10 uM using myelin basic protein as substrate measured after 40 mins in presence of [gamma33P]ATP by scintillation counting method relative to control.
Chain of Mitogen-activated protein kinase 14 (Homo sapiens) (Q16539 whole entry): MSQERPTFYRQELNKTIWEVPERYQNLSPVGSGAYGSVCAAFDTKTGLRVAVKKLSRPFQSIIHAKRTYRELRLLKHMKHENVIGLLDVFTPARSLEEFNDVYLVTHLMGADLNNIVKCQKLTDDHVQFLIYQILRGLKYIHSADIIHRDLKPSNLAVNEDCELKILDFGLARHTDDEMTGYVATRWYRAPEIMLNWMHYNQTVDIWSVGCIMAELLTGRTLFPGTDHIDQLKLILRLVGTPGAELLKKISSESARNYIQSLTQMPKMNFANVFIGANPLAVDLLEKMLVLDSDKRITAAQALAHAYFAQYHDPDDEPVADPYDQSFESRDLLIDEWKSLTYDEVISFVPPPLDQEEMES
In series [8] the test system is Serine/threonine-protein kinase N1 (Homo sapiens), Q16512 [V901I]. As to the kind of experiment: Inhibition of human PRK1 V901I mutant (498 to end residues) at 10 uM using KKLNRTLSFAEPG as substrate measured after 40 mins in presence of [gamma33P]ATP by scintillation counting method relative to control.
For series [9], the species on record is Homo sapiens. As to the kind of experiment: Inhibition of full length recombinant human PRAK R291E mutant at 10 uM using KKLRRTLSVA as substrate after 40 mins in presence of [gamma33P]ATP by scintillation counting method relative to control.
The target of series [10] is Insulin receptor (Homo sapiens) (UniProt P06213). As to the kind of experiment: Inhibition of recombinant human IR (1005 to 1310 residues) at 10 uM using KKSRGDYMTMQIG as substrate after 40 mins in presence of [gamma33P]ATP by scintillation counting method relative to control.
Series [11] deals with Inhibitor of nuclear factor kappa-B kinase subunit epsilon (Homo sapiens) (UniProt Q14164). As to the kind of experiment: Inhibition of full length recombinant human IKKepsilon at 10 uM using casein as substrate after 40 mins in presence of [gamma33P]ATP by scintillation counting method relative to control.
Series [12] concerns the target Insulin-like growth factor 1 receptor (Homo sapiens) (UniProt P08069). As to the kind of experiment: Inhibition of recombinant human IGF1R activated (959 to end residues) at 10 uM using KKKSPGEYVNIEF as substrate after 40 mins in presence of [gamma33P]ATP by scintillation counting method relative to control.
Series [13] has as its system RAF proto-oncogene serine/threonine-protein kinase (Homo sapiens), P04049 [Y340D,Y341D]. As to the kind of experiment: Inhibition of recombinant human c-RAF Y340D/Y341D mutant (360 to end residues) at 10 uM using inactive MEK1 as substrate measured after 40 mins in presence of [gamma33P]ATP by scintillation counting method relative to control.
The target of series [14] is CDK9/cyclin T1 (Homo sapiens) (UniProt O60563+P50750). As to the kind of experiment: Inhibition of recombinant full length human CDK9/cyclinT1 at 10 uM using KTFCGTPEYLAPEVRREPRILSEEEQEMFRDFDYIADWC as substrate measured after 40 mins in presence of [gamma33P]ATP by scintillation counting method relative to control. Type of series: protein-complex assay.
The target in series [15] is Cyclin-dependent kinase 13/Cyclin-K (Homo sapiens) (UniProt Q14004+O75909). As to the kind of experiment: Inhibition of full-length recombinant human CDK13/cyclinK at 10 uM using RSRSRSRSRSRSRSR as substrate after 120 mins by in presence of [gamma33P]ATP by scintillation counting method relative to control. The format is protein-complex assay.
Series [16] deals with Cyclin-dependent kinase 1/cyclin B1 (Homo sapiens) (UniProt P06493+P14635). As to the kind of experiment: Inhibition of full-length recombinant human CDK1/cyclinB at 10 uM using histone H1 as substrate after 40 mins by in presence of [gamma33P]ATP by scintillation counting method relative to control. The format is protein-complex assay.
For series [17], the species on record is Homo sapiens. As to the kind of experiment: Inhibition of recombinant human Mer H628Q/R794A mutant (557 to 882 residues) at 10 uM using GGMEDIYFEFMGGKKK as substrate measured after 40 mins in presence of [gamma33P]ATP by scintillation counting method relative to control.
The target of series [18] is Dual specificity mitogen-activated protein kinase kinase 2 (Homo sapiens) (UniProt P36507). As to the kind of experiment: Inhibition of recombinant full-length human MEK2 at 10 uM using MBP as substrate measured after 40 mins in presence of [gamma33P]ATP by scintillation counting method relative to control.
Chain of Dual specificity mitogen-activated protein kinase kinase 2 (Homo sapiens) (P36507 whole entry): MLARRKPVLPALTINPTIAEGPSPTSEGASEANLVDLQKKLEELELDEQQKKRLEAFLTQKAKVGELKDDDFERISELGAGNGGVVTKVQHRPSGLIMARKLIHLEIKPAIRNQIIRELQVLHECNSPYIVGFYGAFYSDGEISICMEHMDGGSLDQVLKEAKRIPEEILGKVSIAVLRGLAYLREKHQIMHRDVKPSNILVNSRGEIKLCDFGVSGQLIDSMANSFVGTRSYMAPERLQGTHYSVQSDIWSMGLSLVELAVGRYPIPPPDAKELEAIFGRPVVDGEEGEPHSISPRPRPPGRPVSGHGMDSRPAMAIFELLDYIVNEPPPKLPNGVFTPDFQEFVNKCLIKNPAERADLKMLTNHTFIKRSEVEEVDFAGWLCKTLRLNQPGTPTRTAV
For series [19], the target named is Leukocyte tyrosine kinase receptor (Homo sapiens) (UniProt P29376). As to the kind of experiment: Inhibition of recombinant human LTK (450 to end residues) at 10 uM using GEEPLYWSFPAKKK as substrate measured after 40 mins in presence of [gamma33P]ATP by scintillation counting method relative to control.
Chain of Leukocyte tyrosine kinase receptor (Homo sapiens) (P29376 whole entry): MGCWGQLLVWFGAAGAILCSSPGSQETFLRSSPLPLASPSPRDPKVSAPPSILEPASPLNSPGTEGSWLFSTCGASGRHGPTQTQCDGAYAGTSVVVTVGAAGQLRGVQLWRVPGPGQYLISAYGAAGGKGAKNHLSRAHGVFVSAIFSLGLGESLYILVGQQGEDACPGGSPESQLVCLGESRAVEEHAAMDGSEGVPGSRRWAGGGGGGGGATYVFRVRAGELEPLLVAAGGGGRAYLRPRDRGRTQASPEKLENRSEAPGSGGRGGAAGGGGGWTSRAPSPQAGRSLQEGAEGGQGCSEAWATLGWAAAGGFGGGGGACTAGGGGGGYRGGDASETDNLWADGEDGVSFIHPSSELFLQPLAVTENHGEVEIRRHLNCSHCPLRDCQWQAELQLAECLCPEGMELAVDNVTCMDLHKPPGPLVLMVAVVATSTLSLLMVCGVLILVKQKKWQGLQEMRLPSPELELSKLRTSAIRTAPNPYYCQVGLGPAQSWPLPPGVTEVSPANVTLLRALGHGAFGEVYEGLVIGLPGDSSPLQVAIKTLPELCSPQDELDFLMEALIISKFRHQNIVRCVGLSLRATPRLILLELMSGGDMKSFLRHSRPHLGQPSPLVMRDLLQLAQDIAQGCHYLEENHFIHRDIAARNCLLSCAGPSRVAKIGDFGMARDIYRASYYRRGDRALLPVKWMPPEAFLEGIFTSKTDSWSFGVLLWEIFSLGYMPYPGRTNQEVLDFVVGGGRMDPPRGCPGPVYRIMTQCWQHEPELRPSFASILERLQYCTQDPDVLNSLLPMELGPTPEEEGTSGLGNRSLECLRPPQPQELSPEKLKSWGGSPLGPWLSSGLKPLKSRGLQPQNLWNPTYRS
Series [20] addresses Protein-tyrosine kinase 6 (Homo sapiens) (UniProt Q13882). As to the kind of experiment: Inhibition of full-length recombinant human BRK at 10 uM using poly(Glu, Tyr) 4:1 as substrate measured after 40 mins in presence of [gamma33P]ATP by scintillation counting method relative to control.
Series [21] is filed under the species Homo sapiens. As to the kind of experiment: Inhibition of recombinant full length human Aurora A I31F mutant at 10 uM using LRRASLG as substrate incubated for 40 mins in presence of [gamma-33P]-ATP by scintillation counting method relative to control.
Series [22] concerns the target Serine/threonine-protein kinase ULK1 (Homo sapiens) (UniProt O75385). As to the kind of experiment: Inhibition of recombinant human ULK1 (1 to 314 residues) at 10 uM using casein as substrate measured after 40 mins in presence of [gamm33P]ATP by scintillation counting method relative to control.
Series [23] has as its target Tyrosine-protein kinase Yes (Homo sapiens) (UniProt P07947). As to the kind of experiment: Inhibition of recombinant full-length human Yes at 10 uM using poly(Glu, Tyr) 4:1 as substrate measured after 40 mins in presence of [gamma33P]ATP by scintillation counting method relative to control.
Series [24] addresses Histone-lysine N-methyltransferase SETD7 (Homo sapiens) (UniProt Q8WTS6). As to the kind of experiment: Inhibition of human SET7 at 10 uM relative to control.

Activity calls are given as the source filed them. The calls are words filed in the database; no cut-off is given here.

The inhibition is the drop in the measured response relative to a control, in per cent.

Chain of Serine/threonine-protein kinase ULK1 (Homo sapiens) (O75385 whole entry, the tested form may be a part): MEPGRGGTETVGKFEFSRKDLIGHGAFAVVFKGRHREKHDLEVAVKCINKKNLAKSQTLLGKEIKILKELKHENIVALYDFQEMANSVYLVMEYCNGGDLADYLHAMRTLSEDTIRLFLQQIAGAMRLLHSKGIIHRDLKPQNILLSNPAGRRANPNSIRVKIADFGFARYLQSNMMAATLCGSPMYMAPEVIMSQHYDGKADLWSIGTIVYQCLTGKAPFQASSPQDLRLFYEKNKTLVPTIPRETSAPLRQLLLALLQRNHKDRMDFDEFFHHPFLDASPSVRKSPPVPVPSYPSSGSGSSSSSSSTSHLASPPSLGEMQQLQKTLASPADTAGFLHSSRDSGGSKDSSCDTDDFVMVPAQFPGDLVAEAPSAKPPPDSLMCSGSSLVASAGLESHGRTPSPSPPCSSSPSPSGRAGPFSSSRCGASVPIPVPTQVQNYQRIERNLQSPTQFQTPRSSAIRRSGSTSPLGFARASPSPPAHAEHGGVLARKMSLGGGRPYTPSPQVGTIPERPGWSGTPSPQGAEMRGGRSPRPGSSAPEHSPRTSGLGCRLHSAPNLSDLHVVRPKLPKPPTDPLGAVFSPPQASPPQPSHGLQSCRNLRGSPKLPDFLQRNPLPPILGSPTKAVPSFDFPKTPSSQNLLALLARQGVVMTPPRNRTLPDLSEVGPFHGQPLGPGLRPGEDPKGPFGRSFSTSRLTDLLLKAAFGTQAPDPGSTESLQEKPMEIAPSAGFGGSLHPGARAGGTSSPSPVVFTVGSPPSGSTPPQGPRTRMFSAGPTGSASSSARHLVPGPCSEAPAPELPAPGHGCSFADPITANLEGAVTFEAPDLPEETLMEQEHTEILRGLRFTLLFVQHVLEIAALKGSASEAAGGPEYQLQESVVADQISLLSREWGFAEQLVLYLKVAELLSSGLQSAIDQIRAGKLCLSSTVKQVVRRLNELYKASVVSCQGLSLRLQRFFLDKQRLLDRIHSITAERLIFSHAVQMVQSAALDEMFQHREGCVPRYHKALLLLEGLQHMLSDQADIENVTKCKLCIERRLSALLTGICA
Chain of Protein-tyrosine kinase 6 (Homo sapiens) (Q13882 whole entry, looked up): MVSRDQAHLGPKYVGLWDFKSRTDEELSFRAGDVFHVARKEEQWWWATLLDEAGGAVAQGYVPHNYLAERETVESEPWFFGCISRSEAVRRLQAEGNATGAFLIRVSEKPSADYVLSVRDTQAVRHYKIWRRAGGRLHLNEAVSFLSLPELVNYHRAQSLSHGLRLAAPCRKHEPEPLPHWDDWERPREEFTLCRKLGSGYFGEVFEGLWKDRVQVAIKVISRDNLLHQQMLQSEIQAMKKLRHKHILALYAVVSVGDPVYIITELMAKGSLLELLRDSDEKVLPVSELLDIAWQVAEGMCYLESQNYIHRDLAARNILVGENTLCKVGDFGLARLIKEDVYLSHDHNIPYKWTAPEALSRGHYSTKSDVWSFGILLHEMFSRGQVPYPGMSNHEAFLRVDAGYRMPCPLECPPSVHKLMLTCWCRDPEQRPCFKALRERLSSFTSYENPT
Chain of Tyrosine-protein kinase Yes (Homo sapiens) (P07947 2-543 limits assumed): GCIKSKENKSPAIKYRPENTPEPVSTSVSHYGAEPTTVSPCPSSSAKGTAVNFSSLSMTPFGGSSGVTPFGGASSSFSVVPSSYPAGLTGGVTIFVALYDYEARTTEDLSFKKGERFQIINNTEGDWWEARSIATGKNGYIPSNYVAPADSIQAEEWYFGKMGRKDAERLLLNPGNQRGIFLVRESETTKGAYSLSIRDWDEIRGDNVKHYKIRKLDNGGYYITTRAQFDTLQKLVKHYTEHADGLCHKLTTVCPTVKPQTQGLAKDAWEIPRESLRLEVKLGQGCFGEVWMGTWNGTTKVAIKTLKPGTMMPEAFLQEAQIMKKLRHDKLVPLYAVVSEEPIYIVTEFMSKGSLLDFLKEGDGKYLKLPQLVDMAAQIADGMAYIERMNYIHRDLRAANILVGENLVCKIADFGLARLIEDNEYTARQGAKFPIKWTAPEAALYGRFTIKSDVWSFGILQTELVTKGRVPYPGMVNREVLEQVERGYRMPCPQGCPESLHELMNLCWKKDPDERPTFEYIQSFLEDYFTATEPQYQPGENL
Chain of Histone-lysine N-methyltransferase SETD7 (Homo sapiens) (Q8WTS6 whole entry): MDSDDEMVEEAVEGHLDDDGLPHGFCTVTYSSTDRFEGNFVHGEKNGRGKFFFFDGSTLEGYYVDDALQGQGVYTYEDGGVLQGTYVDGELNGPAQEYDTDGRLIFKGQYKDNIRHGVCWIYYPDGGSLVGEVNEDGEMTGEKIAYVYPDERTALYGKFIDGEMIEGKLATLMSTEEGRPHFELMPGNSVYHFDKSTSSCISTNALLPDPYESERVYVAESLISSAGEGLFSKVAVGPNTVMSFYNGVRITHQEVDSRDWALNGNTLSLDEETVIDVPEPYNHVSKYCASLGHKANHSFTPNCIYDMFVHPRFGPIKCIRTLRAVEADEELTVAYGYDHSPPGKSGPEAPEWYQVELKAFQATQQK
Chain of Fatty acid-binding protein 5 (Homo sapiens) (Q01469 whole entry): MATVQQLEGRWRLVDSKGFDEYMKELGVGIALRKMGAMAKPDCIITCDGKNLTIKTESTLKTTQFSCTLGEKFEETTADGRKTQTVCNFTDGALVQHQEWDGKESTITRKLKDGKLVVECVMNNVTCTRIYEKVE

With `C=CS(=O)(=O)Nc1ccc(Cc2ccc3ccccc3c2)cc1`, the Activity result in series [1] was “Not Active”. Further, the result in series [2] was Active. Further, in series [3], the inhibition entry was “inactive”. Moreover, the inhibition in series [4] is -3%; in series [5], 6%; in series [6] it was 8%; in [7] it was 10%; in [8] it was 2%; in the series listed under Homo sapiens [9], 2%. Moreover, the inhibition in [10] was -10%; in series [11] it was 5%; in series [12], 16%; in [13], -8%; in series [14], 3%; in series [15], 17%. Further, the inhibition is 4% in series [16]; 13% in the series filed under Homo sapiens [17]; -9% in series [18]; 7% in series [19]; -6% in series [20]; -10% in the series listed under Homo sapiens [21]. The results for the inhibition in [22], in series [23] and in series [24] were 7%, 3% and 2%, respectively.

The record behind these values is ChEMBL document CHEMBL4376829, “Discovery and biological evaluation of vinylsulfonamide derivatives as highly potent, covalent TEAD autopalmitoylation inhibitors” (Eur J Med Chem, 2019).
